Structures are written as SMILES. Like-named read-outs stand apart in the source and are kept apart here.

These results are taken from patent publication US8420594B2, “Inhibitors of MRP4 and agents stimulating MRP4 activity for the treatment of cardiac disorders” (INSERM (Institute de la Sante et de la Recherche Medicale), priority 2008, dated 2013).

The subject of assay [1] is PDE3.
Procedure: Briefly, mice were euthanized by cervical dislocation, the heart rapidly excised and retrogradely perfused at 37° C. for 6-8 min with a modified tyrode solution (in mM: NaCl113, KCL 4.7, KH2PO4 0.6, Na2HPO4 0.6, MgSO4 1.2, NaHCO3 12, KHCO3 10, HEPES10 Taurine 30, pH=7.4) containing 1 mg.ml-1 of liberase (Roche, France). Isolated myocytes were then transferred to the same solution, free of enzyme, containing 1 mM CaCl2.
In addition, we have measured the effect of PDE3 inhibition by cilostamide on the contractility of ventricular myocytes isolated from WT and MRP4 KO mice.
Assay [2] relates to PDE3. This is another data set of the same source.
Procedure: Cardiac ventricular myocytes were enzymatically dissociated using standard procedures (Fauconnier, J. et al. Diabetes, 2007). Briefly, mice were euthanized by cervical dislocation, the heart rapidly excised and retrogradely perfused at 37° C. for 6-8 min with a modified tyrode solution (in mM: NaCl113, KCL 4.7, KH2PO4 0.6, Na2HPO4 0.6, MgSO4 1.2, NaHCO3 12, KHCO3 10, HEPES10 Taurine 30, pH=7.4) containing 1 mg.ml-1 of liberase (Roche, France). Isolated myocytes were then transferred to the same solution, free of enzyme, containing 1 mM CaCl2.
Cells were loaded for 30 min at RT with Fluo-4 AM (5 μmol/l, Molecular Probes). Cells were then field-stimulated at 1 Hz with a 1-2 ms current pulse delivered via two platinum electrodes, one on each side of the perfusion chamber. Changes in Fluo-4 fluorescence were recorded using an LSM510 Meta Zeiss confocal microscope equipped with a 63× water immersion objective (NA: 1.2). Measurements were performed in line-scan mode (1.5 ms/line) and scanning was carried out along the long axis of the cell. An excitation wavelength of 488 nm was used, and emitted light was collected through a 505 nm long pass filter. The laser intensity used (3-6% of the maximum) had no noticeable deleterious effect on the fluorescence signal or on cell function over the time-course of the experiment. To enable comparisons between cells, the change in fluorescence (ΔF) was divided by the fluorescence detected immediately before the 0.5 Hz stimulation pulse (F0).
Another assay deals with β-adrenergic system. The assay is described as follows: Chronic β-adrenergic stimulation, isoproterenol-induced cardiac hypertrophy. The format is in vivo. The conditions noted are these: 20 μg/g/day for 2 weeks by miniosmotic pumps, 3 month-old MRP4 KO vs WT mice. The method, then: Animal models. MRP4 ablated mice (MRP4 KO) were generated and genotyped as described (Leggas, M. et al. Mol Cell Biol 24, 7612-21 (2004). Wild-type and homozygous MRP4-KO mice (8-10 weeks of age) were subjected to left ventricular pressure overload by transverse aortic constriction (TAC), as previously described (Rockman, et al. Proc Natl Acad Sci USA 88, 8277-81 (1991). Five weeks after the procedure, the animals were sacrified and heart and body weights were determined. As a model of β-adenergic overstimulation miniosmotic pumps (Alzet) containing (−)-isoproterenol-bitartrate (Sigma Aldrich) (delivering 20 μg/g/day each) were implanted subcutaneously into 10-12 weeks old animals. Determination of heart weights and analysis of gene expression were carried out after 14 days of continuous infusion. Finally, male MRP4 KO mice and WT littermate were subjected to voluntary exercise. The animals were 10-12 weeks at the start of the study. Individual animals were housed in a cage with free access to a 11.5-cm-diameter running wheel with a 5.0-cm-wide running surface equipped with a digital magnetic counter (model BC 1200, Sigma Sport) that is activated by wheel rotation. Daily exercise values for time and distance run were recorded for each exercised animal throughout the duration of the exercise period. […]

Assay [3] concerns PDE3. Briefly: Chronotropic effect of PDE3 inhibitor, telemetric ECG (RR interval) in WT and MRP4 KO mice. Format: in vivo. As to conditions: for heart rate: wild-type mice. How it is done:
Animal models. MRP4 ablated mice (MRP4 KO) were generated and genotyped as described (Leggas, M. et al. Mol Cell Biol 24, 7612-21 (2004). Wild-type and homozygous MRP4-KO mice (8-10 weeks of age) were subjected to left ventricular pressure overload by transverse aortic constriction (TAC), as previously described (Rockman, et al. Proc Natl Acad Sci USA 88, 8277-81 (1991). Five weeks after the procedure, the animals were sacrified and heart and body weights were determined. As a model of β-adenergic overstimulation miniosmotic pumps (Alzet) containing (−)-isoproterenol-bitartrate (Sigma Aldrich) (delivering 20 μg/g/day each) were implanted subcutaneously into 10-12 weeks old animals. Determination of heart weights and analysis of gene expression were carried out after 14 days of continuous infusion. Finally, male MRP4 KO mice and WT littermate were subjected to voluntary exercise. The animals were 10-12 weeks at the start of the study. Individual animals were housed in a cage with free access to a 11.5-cm-diameter running wheel with a 5.0-cm-wide running surface equipped with a digital magnetic counter (model BC 1200, Sigma Sport) that is activated by wheel rotation. Daily exercise values for time and distance run were recorded for each exercised animal throughout the duration of the exercise period.
Telemetry studies. Long-term telemetric ambulatory ECG measurements were performed in wild type and knock out male mice at 3 months of age. Six-lead restrained ECG monitoring of conscious animals (hamsters and mice) were performed with EasyCG® tools system (EMKA technologies, France) formed by the four sensors of ecgTUNNEL® system platform and a translucent animal sizefitting half-tunnel. Each animal was put inside the tunnel, which was then closed, assuring the animal to be properly restrained. The four wires of the platform were connected to a wireless transmitter and amplifier system (emkaPACK®, EMKA technologies). Telemetric ECG tracing were obtained in conscious mice during quiet awake time at daytime. To minimize the effects of stress, animals were allowed to stay in the restraining system for 5 min before starting ECG recordings. […] Six leads of ECG were recorded during 15 to 20 min using specific software (iox®, EMKA technologies): three leads were measured (L1, L2, L3), and three were calculated (aVR, aVL, aVF). Dedicated software (Ecg-auto®, EMKA technologies) was used to measure RR interval, SDNN and HRV index. If needed, raw data were submitted to a 50-Hz notch filter with an automatic setting determined by the software.

Regarding `CN(C(=O)CCCOc1ccc2[nH]c(=O)ccc2c1)C1CCCCC1` [Cilostamide], in the assay on PDE3 [1] (MRP4 KO compared to WT), the “contractility increase, MRP4 KO vs WT” value was “significantly more”. Also, the “contractility of ventricular myocytes” value with PDE3 [1] (MRP4 KO mice myocytes) is recorded as “increased”. For the same molecule, in the assay with PDE3 [1] (WT mice myocytes), the “contractility of ventricular myocytes” value is “increased”. In the assay with PDE3 [2] (MRP4 KO mice myocytes), the “Ca2+ transient amplitude (ΔF/F0)” value was “increased”, the “Ca2+ transient half width” value is on record as “decreased”, the “Ca2+ transient rate of decay t” value is on record as “decreased” and the “Ca2+ transient rate of rise (ΔF/F0.ms−1)” value is on record as “decreased”. Further, the “Ca2+ transient” value with PDE3 [2] (myocytes isolated from WT heart) was “no effect”.

Consider `CC(C)NC[C@H](O)c1ccc(O)c(O)c1` [Isoproterenol, (−)-isoproterenol-bitartrate], for which, in the assay on β-adrenergic system, the “cardiac hypertrophy (HW/TL ratio)” value is reported as “significantly more important”.

For `Cc1[nH]c(=O)c(C#N)cc1-c1ccncc1` [Milrinone], the RR interval result in the assay on PDE3 [3] (0.1 mg/kg, MRP4 KO mice) was “significant decrease”. In addition, the heart rate result in the assay with PDE3 [3] (0.1 mg/kg) was “not changing heart rate”; in the assay on PDE3 [3] (1 mg/kg), “acceleration of heart rate”. Moreover, the “decrease in RR interval” value in the assay with PDE3 [3] (1 mg/kg, MRP4 KO mice compared to wild-type mice) was “significantly higher”. The chronotropic dose-effect result in the assay with PDE3 [3] (MRP4 KO mice compared to wild-type) is “dramatically enhanced”.
